Tests used:
Type in all cases: functional
NCI-H322M = assay: Growth inhibition of human NCI-H322M cells assessed as cell growth at 10 uM after 48 hrs by SRB assay; details: read-out: Activity
SF-295 = assay: Growth inhibition of human SF295 cells assessed as cell growth at 10 uM after 48 hrs by SRB assay; details: SF-295, 48 h, read-out: Activity
CAKI-1 [1] = assay: Growth inhibition of human Caki1 cells assessed as cell growth at 0.1 uM after 48 hrs by SRB assay; details: CAKI-1, 48 h, read-out: Activity
NCI-H522 = assay: Growth inhibition of human NCI-H522 cells assessed as cell growth at 1 uM after 48 hrs by SRB assay; details: NCI-H522, 48 h, read-out: Activity
NCI-H23 [2] = assay: Growth inhibition of human NCI-H23 cells after 48 hrs by […] growth inhibition assay; details: NCI-H23, 48 h
HCT-15 = assay: Growth inhibition of human HCT15 cells assessed as cell growth at 10 uM after 48 hrs by SRB assay; details: HCT-15, 48 h, read-out: Activity
M14 = assay: Growth inhibition of human M14 cells assessed as cell growth at 0.1 uM after 48 hrs by SRB assay; details: M14, 48 h, read-out: Activity
HCC 2998 = assay: Growth inhibition of human HCC2998 cells assessed as cell growth at 100 uM after 48 hrs by SRB assay; details: HCC 2998, 48 h, read-out: Activity
KM12 [3] = assay: Growth inhibition of human KM12 cells assessed as cell growth at 0.1 uM after 48 hrs by SRB assay; details: KM12, 48 h, read-out: Activity
MDA-MB-231 [4] = assay: Growth inhibition of human MDA-MB-231 cells assessed as cell growth at 1 uM after 48 hrs by SRB assay; details: MDA-MB-231, 48 h, read-out: Activity
ACHN = assay: Growth inhibition of human ACHN cells assessed as cell growth at 10 uM after 48 hrs by SRB assay; details: read-out: Activity
KM12 [5] = assay: Growth inhibition of human KM12 cells assessed as cell growth at 1 mM after 48 hrs by SRB assay; details: KM12, 48 h, read-out: Activity
SK-MEL-28 = assay: Growth inhibition of human SK-MEL-28 cells after 48 hrs by […] growth inhibition assay; details: SK-MEL-28, 48 h
NCI-H226 = assay: Growth inhibition of human NCI-H226 cells assessed as cell growth at 10 uM after 48 hrs by SRB assay; details: NCI-H226, 48 h, read-out: Activity
786-0 = assay: Growth inhibition of human 786-0 cells assessed as cell growth at 1 mM after 48 hrs by SRB assay; details: 786-0, 48 h, read-out: Activity
EKVX [6] = assay: Growth inhibition of human EKVX cells assessed as cell growth at 0.1 uM after 48 hrs by SRB assay; details: read-out: Activity
RXF 393 [7] = assay: Growth inhibition of human RXF393 cells assessed as cell growth at 1 mM after 48 hrs by SRB assay; details: RXF 393, 48 h, read-out: Activity
KM12 [8] = assay: Growth inhibition of human KM12 cells assessed as cell growth at 10 uM after 48 hrs by SRB assay; details: KM12, 48 h, read-out: Activity
T47D = assay: Growth inhibition of human T47D cells assessed as cell growth at 1 mM after 48 hrs by SRB assay; details: read-out: Activity
A549 = assay: Growth inhibition of human A549 cells assessed as cell growth at 1 uM after 48 hrs by SRB assay; details: A549, 48 h, read-out: Activity
Malme-3M = assay: Growth inhibition of human MALME-3M cells assessed as cell growth at 10 uM after 48 hrs by SRB assay; details: read-out: Activity
COLO 205 = assay: Growth inhibition of human COLO205 cells assessed as cell growth at 1 mM after 48 hrs by SRB assay; details: COLO 205, 48 h, read-out: Activity
OVCAR-5 = assay: Growth inhibition of human OVCAR5 cells assessed as cell growth at 10 uM after 48 hrs by SRB assay; details: OVCAR-5, 48 h, read-out: Activity
HT-29 = assay: Growth inhibition of human HT-29 cells assessed as cell growth at 1 mM after 48 hrs by SRB assay; details: HT-29, 48 h, read-out: Activity
RXF 393 [9] = assay: Growth inhibition of human RXF393 cells assessed as cell growth at 0.1 uM after 48 hrs by SRB assay; details: RXF 393, 48 h, read-out: Activity
EKVX [10] = assay: Growth inhibition of human EKVX cells assessed as cell growth at 1 uM after 48 hrs by SRB assay; details: read-out: Activity
HCT-116 = assay: Growth inhibition of human HCT116 cells assessed as cell growth at 100 uM after 48 hrs by SRB assay; details: HCT-116, 48 h, read-out: Activity
SK-OV-3 = assay: Growth inhibition of human SKOV3 cells assessed as cell growth at 1 mM after 48 hrs by SRB assay; details: SK-OV-3, 48 h, read-out: Activity
HOP-62 = assay: Growth inhibition of human HOP62 cells assessed as cell growth at 10 uM after 48 hrs by SRB assay; details: HOP-62, 48 h, read-out: Activity
SW-620 = assay: Growth inhibition of human SW620 cells assessed as cell growth at 10 uM after 48 hrs by SRB assay; details: SW-620, 48 h, read-out: Activity
OVCAR-3 = assay: Growth inhibition of human OVCAR3 cells after 48 hrs by […] growth inhibition assay; details: OVCAR-3, 48 h
NCI-H23 [11] = assay: Growth inhibition of human NCI-H23 cells assessed as cell growth at 10 uM after 48 hrs by SRB assay; details: NCI-H23, 48 h, read-out: Activity
MDA-MB-231 [12] = assay: Growth inhibition of human MDA-MB-231 cells after 48 hrs by […] growth inhibition assay; details: MDA-MB-231, 48 h
CAKI-1 [13] = assay: Growth inhibition of human Caki1 cells assessed as cell growth at 10 uM after 48 hrs by SRB assay; details: CAKI-1, 48 h, read-out: Activity
[14] = read-out: LC50 (the source's name)
[15] = read-out: pLC50 (the source's name) (converted)

CCOC(=O)C[C@H]1[C@@H](O[Si](C)(C)C(C)(C)C)[C@H](n2cnc3c(NC(=O)Nc4ccccc4)ncnc32)O[C@@H]1CNC(=O)NC
growth at 10 µM (NCI-H322M): 95%
growth at 10 µM (SF-295): 88%
growth at 0.1 µM (CAKI-1 [1]): 88%
growth at 1 µM (NCI-H522): 85%
GI50 (NCI-H23 [2]; read-out: GI50): 33.3 µM
CC50 (NCI-H23 [2]; [14]): > 100 µM
TGI (NCI-H23 [2]; read-out: TGI): > 100 µM
GI50 (NCI-H23 [2]; read-out: pGI50 (converted)): 33.1 µM
CC50 (NCI-H23 [2]; [15]): > 100 µM
TGI (NCI-H23 [2]; read-out: pTGI (converted)): > 100 µM
growth at 10 µM (HCT-15): 94%
growth at 0.1 µM (M14): 90%
growth at 100 µM (HCC 2998): 69%
growth at 0.1 µM (KM12 [3]): 107%
growth at 1 µM (MDA-MB-231 [4]): 103%
growth at 10 µM (ACHN): 96%
growth at 1000 µM (KM12 [5]): -28%
GI50 (SK-MEL-28; read-out: GI50): 6.85 µM
CC50 (SK-MEL-28; [14]): 48.7 µM
TGI (SK-MEL-28; read-out: TGI): 20.2 µM
GI50 (SK-MEL-28; read-out: pGI50 (converted)): 6.92 µM
CC50 (SK-MEL-28; [15]): > 49 µM
TGI (SK-MEL-28; read-out: pTGI (converted)): 20.4 µM
growth at 10 µM (NCI-H226): 102%
growth at 1000 µM (786-0): -97%
growth at 0.1 µM (EKVX [6]): 92%
growth at 1000 µM (RXF 393 [7]): -59%
growth at 10 µM (KM12 [8]): 105%
growth at 1000 µM (T47D): 13%
growth at 1 µM (A549): 103%
growth at 10 µM (Malme-3M): 92%
growth at 1000 µM (COLO 205): 3%
growth at 10 µM (OVCAR-5): 95%
growth at 1000 µM (HT-29): 3%
growth at 0.1 µM (RXF 393 [9]): 99%
growth at 1 µM (EKVX [10]): 90%
growth at 100 µM (HCT-116): 23%
growth at 1000 µM (SK-OV-3): 16%
growth at 10 µM (HOP-62): 97%
growth at 10 µM (SW-620): 97%
GI50 (OVCAR-3; read-out: GI50): 4.59 µM
CC50 (OVCAR-3; [14]): 91.3 µM
TGI (OVCAR-3; read-out: TGI): 17.2 µM
GI50 (OVCAR-3; read-out: pGI50 (converted)): 4.57 µM
CC50 (OVCAR-3; [15]): 91.2 µM
TGI (OVCAR-3; read-out: pTGI (converted)): 17 µM
growth at 10 µM (NCI-H23 [11]): 100%
GI50 (MDA-MB-231 [12]; read-out: GI50): 3.96 µM
CC50 (MDA-MB-231 [12]; [14]): > 100 µM
TGI (MDA-MB-231 [12]; read-out: TGI): 41.3 µM
GI50 (MDA-MB-231 [12]; read-out: pGI50 (converted)): 3.98 µM
CC50 (MDA-MB-231 [12]; [15]): > 100 µM
TGI (MDA-MB-231 [12]; read-out: pTGI (converted)): 41.7 µM
growth at 10 µM (CAKI-1 [13]): 99%

CNC(=O)NC[C@H]1O[C@@H](n2cnc3c(NC(=O)Nc4ccccc4)ncnc32)[C@H](O[Si](C)(C)C(C)(C)C)[C@@H]1CC(=O)N(C)OC
growth at 10 µM (NCI-H322M): 102%
growth at 10 µM (SF-295): 98%
growth at 0.1 µM (CAKI-1 [1]): 85%
growth at 1 µM (NCI-H522): 87%
GI50 (NCI-H23 [2]; read-out: GI50): 57.2 µM
CC50 (NCI-H23 [2]; [14]): > 100 µM
TGI (NCI-H23 [2]; read-out: TGI): > 100 µM
GI50 (NCI-H23 [2]; read-out: pGI50 (converted)): 57.5 µM
CC50 (NCI-H23 [2]; [15]): > 100 µM
TGI (NCI-H23 [2]; read-out: pTGI (converted)): > 100 µM
growth at 10 µM (HCT-15): 93%
growth at 0.1 µM (M14): 98%
growth at 100 µM (HCC 2998): 66%
growth at 0.1 µM (KM12 [3]): 101%
growth at 1 µM (MDA-MB-231 [4]): 104%
growth at 10 µM (ACHN): 95%
growth at 1000 µM (KM12 [5]): 30%
GI50 (SK-MEL-28; read-out: GI50): 7.77 µM
CC50 (SK-MEL-28; [14]): > 100 µM
TGI (SK-MEL-28; read-out: TGI): > 100 µM
GI50 (SK-MEL-28; read-out: pGI50 (converted)): 7.76 µM
CC50 (SK-MEL-28; [15]): > 100 µM
TGI (SK-MEL-28; read-out: pTGI (converted)): > 100 µM
growth at 10 µM (NCI-H226): 99%
growth at 1000 µM (786-0): 8%
growth at 0.1 µM (EKVX [6]): 94%
growth at 1000 µM (RXF 393 [7]): -36%
growth at 10 µM (KM12 [8]): 106%
growth at 1000 µM (T47D): 17%
growth at 1 µM (A549): 100%
growth at 10 µM (Malme-3M): 93%
growth at 1000 µM (COLO 205): 1%
growth at 10 µM (OVCAR-5): 92%
growth at 1000 µM (HT-29): 17%
growth at 0.1 µM (RXF 393 [9]): 103%
growth at 1 µM (EKVX [10]): 95%
growth at 100 µM (HCT-116): 26%
growth at 1000 µM (SK-OV-3): 38%
growth at 10 µM (HOP-62): 86%
growth at 10 µM (SW-620): 93%
GI50 (OVCAR-3; read-out: GI50): 7.11 µM
CC50 (OVCAR-3; [14]): > 100 µM
TGI (OVCAR-3; read-out: TGI): > 100 µM
GI50 (OVCAR-3; read-out: pGI50 (converted)): 7.08 µM
CC50 (OVCAR-3; [15]): > 100 µM
TGI (OVCAR-3; read-out: pTGI (converted)): > 100 µM
growth at 10 µM (NCI-H23 [11]): 99%
GI50 (MDA-MB-231 [12]; read-out: GI50): 12.3 µM
CC50 (MDA-MB-231 [12]; [14]): > 100 µM
TGI (MDA-MB-231 [12]; read-out: TGI): > 100 µM
GI50 (MDA-MB-231 [12]; read-out: pGI50 (converted)): 12.3 µM
CC50 (MDA-MB-231 [12]; [15]): > 100 µM
TGI (MDA-MB-231 [12]; read-out: pTGI (converted)): > 100 µM
growth at 10 µM (CAKI-1 [13]): 76%

Source: ChEMBL document CHEMBL1681651, “A broad spectrum anticancer nucleoside with selective toxicity against human colon cells in vitro” (2011)
